ChEMBL document CHEMBL1121780, “Synthesis and antiarrhythmic activity of new benzofuran derivatives” (J Med Chem, 1981)
Where “and” joins values, the source holds several entries; their conditions need not be identical. Equal entries are not always repeated. Calls of active or inactive are those of the source. No cut-off for these calls is given here.

Key:
Canis familiaris [1] = species: Canis familiaris; experiment: Duration for the sinus rhythm recovery was measured; format: functional, Canis lupus familiaris
Canis familiaris [2] = experiment: Activity against harris coronary ligation induced ventricular arrhythmia was measured as percent of initial sinus complexes after dose 1 mg/kg iv; Inactive; format: organism-based, Canis lupus familiaris, Cardiac ventricle; set-up: dose 1 mg/kg; conditions: dog, in vivo
Canis familiaris [3] = experiment: Activity against ouabain-induced ventricular arrhythmia was measured as percent of sinus rhythm recovery at dose of 1 mg/kg iv; format: functional, Canis lupus familiaris, Cardiac ventricle
[4] = Toxicity estimated in mouse as LD50 by intravenous administration; format: organism-based; conditions: in vivo
Canis familiaris [5] = species: Canis familiaris; experiment: Duration for the antiarrhythmic activity was measured; 10-60; format: functional, Canis lupus familiaris, Heart
Canis familiaris [6] = experiment: Activity against harris coronary ligation induced ventricular arrhythmia was measured as percent of initial sinus complexes after dose 2 mg/kg iv; format: organism-based, Canis lupus familiaris, Cardiac ventricle; set-up: dose 2 mg/kg, route intravenous; conditions: dog, in vivo
Canis familiaris [7] = experiment: Activity against harris coronary ligation induced ventricular arrhythmia was measured as percent of final sinus complexes after dose 2 mg/kg, iv; format: functional, Canis lupus familiaris, Cardiac ventricle
Canis familiaris [8] = experiment: Activity against ouabain-induced ventricular arrhythmia was measured as percent of sinus rhythm recovery at dose of 10 mg/kg iv; format: functional, Canis lupus familiaris, Cardiac ventricle
[9] = Toxicity was estimated in mouse as LD50 by intravenous administration; LD50 = 200(30%); format: organism-based; conditions: in vivo
Canis familiaris [10] = experiment: Activity against harris coronary ligation induced ventricular arrhythmia was measured as percent of initial sinus complexes after dose 2 mg/kg, iv; Inactive; format: functional, organism-based; set-up: dose 2 mg/kg; conditions: Canis lupus familiaris; Cardiac ventricle; at 2 mg/kg
Canis familiaris [11] = experiment: Activity against ouabain-induced ventricular arrhythmia was measured as percent of sinus rhythm recovery at dose of 2 mg/kg iv; format: functional, Canis lupus familiaris, Cardiac ventricle
Canis familiaris [12] = experiment: Activity against harris coronary ligation induced ventricular arrhythmia was measured as percent of initial sinus complexes after dose 2.5 mg/kg, iv; format: functional, Canis lupus familiaris, Cardiac ventricle
Canis familiaris [13] = experiment: Activity against harris coronary ligation induced ventricular arrhythmia was measured as percent of initial sinus complexes after dose 25 mg/kg, po; format: functional, Canis lupus familiaris, Cardiac ventricle
Canis familiaris [14] = experiment: Activity against harris coronary ligation induced ventricular arrhythmia was measured as percent of initial sinus complexes after dose 12.5 mg/kg, po; format: functional, Canis lupus familiaris, Cardiac ventricle
Canis familiaris [15] = experiment: Activity against harris coronary ligation induced ventricular arrhythmia was measured as percent of initial sinus complexes after dose 5 mg/kg, iv; format: functional, Canis lupus familiaris, Cardiac ventricle
Canis familiaris [16] = experiment: Activity against harris coronary ligation induced ventricular arrhythmia was measured as percent of initial sinus complexes after dose 6.25 mg/kg, po; format: functional, Canis lupus familiaris, Cardiac ventricle
Canis familiaris [17] = experiment: Activity against harris coronary ligation induced ventricular arrhythmia was measured as percent of final sinus complexes after dose 25 mg/kg, po; format: functional, Canis lupus familiaris, Cardiac ventricle
Canis familiaris [18] = experiment: Activity against harris coronary ligation induced ventricular arrhythmia was measured as percent of final sinus complexes after dose 5 mg/kg, iv; format: functional, Canis lupus familiaris, Cardiac ventricle
Canis familiaris [19] = experiment: Activity against harris coronary ligation induced ventricular arrhythmia was measured as percent of final sinus complexes after dose 6.25 mg/kg, po; format: functional, Canis lupus familiaris, Cardiac ventricle
Canis familiaris [20] = experiment: (§1) Activity against harris coronary ligation induced ventricular arrhythmia was measured as percent of final sinus complexes after dose 12.5 mg/kg, po; format: functional, Canis lupus familiaris, Cardiac ventricle
Canis familiaris [21] = experiment: Activity against harris coronary ligation induced ventricular arrhythmia was measured as percent of final sinus complexes after dose 2.5 mg/kg, iv; format: functional, Canis lupus familiaris, Cardiac ventricle
Canis familiaris [22] = species: Canis familiaris; experiment: Duration for the antiarrhythmic activity was measured; format: functional, Canis lupus familiaris, Heart
Canis familiaris [23] = experiment: Activity against harris coronary ligation induced ventricular arrhythmia was measured as percent of initial sinus complexes after dose 25 mg/kg po; format: functional, Canis lupus familiaris, Cardiac ventricle
Canis familiaris [24] = experiment: Activity against harris coronary ligation induced ventricular arrhythmia was measured as percent of initial sinus complexes after dose 5 mg/kg iv; format: functional, Canis lupus familiaris, Cardiac ventricle
Canis familiaris [25] = experiment: Activity against ouabain-induced ventricular arrhythmia was measured as percent of sinus rhythm recovery at dose of 5 mg/kg iv; format: functional, Canis lupus familiaris, Cardiac ventricle
Canis familiaris [26] = experiment: Activity against harris coronary ligation induced ventricular arrhythmia was measured as percent of final sinus complexes after dose 5 mg/kg iv; format: functional, Canis lupus familiaris, Cardiac ventricle
Canis familiaris [27] = experiment: Activity against harris coronary ligation induced ventricular arrhythmia was measured as percent of final sinus complexes after dose 25 mg/kg po; format: functional, Canis lupus familiaris, Cardiac ventricle
Canis familiaris [28] = experiment: Activity against harris coronary ligation induced ventricaulr arrhythmia was measured as percent of initial sinus complexes after dose 12.5 mg/kg po; format: functional, Canis lupus familiaris
Canis familiaris [29] = experiment: Activity against harris coronary ligation induced ventricular arrhythmia was measured as percent of initial sinus complexes after dose 2 mg/kg po; format: functional, Canis lupus familiaris, Cardiac ventricle
Canis familiaris [30] = experiment: Activity against harris coronary ligation induced ventricular arrhythmia was measured as percent of initial sinus complexes after dose 2 mg/kg, iv; format: functional, Canis lupus familiaris, Cardiac ventricle
Canis familiaris [31] = experiment: Activity against harris coronary ligation induced ventricular arrhythmia was measured as percent of final sinus complexes after dose 2 mg/kg iv; format: functional, Canis lupus familiaris, Cardiac ventricle
Canis familiaris [32] = experiment: Activity against harris coronary ligation induced ventricular arrhythmia was measured as percent of final sinus complexes after dose 2 mg/kg, po; format: functional, Canis lupus familiaris, Cardiac ventricle
Canis familiaris [33] = experiment: as §1; format: functional, Canis lupus familiaris, Cardiac ventricle; remark: listed apart in the source
Canis familiaris [34] = experiment: Activity against harris coronary ligation induced ventricular arrhythmia was measured as percent of final sinus complexes after dose 20 mg/kg, po; format: functional, Canis lupus familiaris, Cardiac ventricle
Canis familiaris [35] = experiment: Activity against ouabain-induced ventricular arrhythmia was measured as percent of sinus rhythm recovery at dose of 4 mg/kg iv; format: functional, Canis lupus familiaris, Cardiac ventricle
Canis familiaris [36] = species: Canis familiaris; experiment: Activity against ouabain-induced ventricular arrhythmia was measured as percent of sinus rhythm recovery; Estimated as too toxic to be tested; format: functional, organism-based; conditions: Canis lupus familiaris; Cardiac ventricle
Canis familiaris [37] = experiment: Activity against harris coronary ligation induced ventricular arrhythmia was measured as percent of initial sinus complexes after dose 10 mg/kg, iv; format: functional, Canis lupus familiaris, Cardiac ventricle
Canis familiaris [38] = experiment: Activity against harris coronary ligation induced ventricular arrhythmia was measured as percent of final sinus complexes after dose 10 mg/kg, iv; format: functional, Canis lupus familiaris, Cardiac ventricle
Canis familiaris [39] = experiment: Activity against ouabain-induced ventricular arrhythmia was measured as percent of sinus rhythm recovery at the dose of 2 mg/kg iv; format: functional, Canis lupus familiaris, Cardiac ventricle
Canis familiaris [40] = experiment: Activity against harris coronary ligation induced ventricular arrhythmia was measured as percent of initial sinus complexes after dose 1 mg/kg iv; format: functional, Canis lupus familiaris, Cardiac ventricle
Canis familiaris [41] = experiment: Activity against harris coronary ligation induced ventricular arrhythmia was measured as percent of final sinus complexes after dose 1 mg/kg iv; format: functional, Canis lupus familiaris, Cardiac ventricle
Canis familiaris [42] = experiment: Activity against harris coronary ligation induced ventricular arrhythmia was measured as percent of initial sinus complexes after dose 4 mg/kg iv; Inactive; format: functional, organism-based; set-up: dose 4 mg/kg; conditions: Canis lupus familiaris; Cardiac ventricle; at 4 mg/kg

With `CNC(=O)Nc1c(OCCNC2CCCCC2)c(OC)c2occc2c1OC` the Duration (Canis familiaris [1]) was 120 min, the ISC (Canis familiaris [2]) was “Not Active” and the SRR (Canis familiaris [3]) was 100%. It also gave an LD50 [4] of 9.5 mg/kg.
`CNC(=O)Nc1c(OCCN(C)C)c(OC)c2occc2c1OC` gave a Duration (Canis familiaris [1]) of 30 min, a Duration (Canis familiaris [5]) of 10 min and an ISC (Canis familiaris [6]) of 5%. For the same molecule, the SRR (Canis familiaris [3]) was 100%, the FSC (Canis familiaris [7]) was 20% and the LD50 [4] was 100 mg/kg.
For `COc1c(NC(C)=O)c(OCCN2CCN(C)CC2)c(OC)c2occc12`, the Duration (Canis familiaris [1]) was less than 30 min, the SRR (Canis familiaris [8]) was 66% and the LD50 [9] was 200 mg/kg.
For `CNC(=O)Nc1c(OCCN2CCCCCCC2)c(OC)c2occc2c1OC`, the Duration (Canis familiaris [1]) was 30 min, the ISC (Canis familiaris [10]) was “inactive” and the SRR (Canis familiaris [11]) was 100%. It also gave an LD50 [4] of 14 mg/kg.
With `CNC(=O)Nc1c(OCCN2CCCCC2)c(OC)c2occc2c1OC` [MUROCAINIDE] the Duration (Canis familiaris [1]) was greater than 60 min, the ISC (Canis familiaris [12]) was 3% and the ISC (Canis familiaris [13]) was 13%. For the same molecule, the SRR (Canis familiaris [11]) was 100%, the ISC (Canis familiaris [14]) was 5% and the ISC (Canis familiaris [15]) was 14%. The ISC (Canis familiaris [16]) was 1%, the FSC (Canis familiaris [17]) was 98% and the FSC (Canis familiaris [18]) was 85%. The FSC (Canis familiaris [19]) was 14%, the FSC (Canis familiaris [20]) was 90% and the FSC (Canis familiaris [21]) was 45%. For the same molecule, the LD50 [4] was 50 mg/kg.
With `CC(C)N(CCC(C(N)=O)(c1ccccc1)c1ccccn1)C(C)C` (stereo unspecified) [DISOPYRAMIDE] the Duration (Canis familiaris [22]) was 60 min and 180 min, the Duration (Canis familiaris [1]) was 25 min and the ISC (Canis familiaris [23]) was 1%. It also gave an ISC (Canis familiaris [24]) of 19%, an SRR (Canis familiaris [25]) of 100% and an FSC (Canis familiaris [26]) of 100%. For the same molecule, the FSC (Canis familiaris [27]) was 100% and the LD50 [4] was 60 mg/kg.
For `CNC(=O)Nc1c(OCCN2CCCC2)c(OC)c2occc2c1OC` [CAROCAINIDE], the Duration (Canis familiaris [1]) was 69 min, the ISC (Canis familiaris [28]) was 19% and 12% and the ISC (Canis familiaris [29]) was 33%. It also gave an ISC (Canis familiaris [30]) of 15%, an SRR (Canis familiaris [11]) of 100% and an ISC (Canis familiaris [24]) of 18%. For the same molecule, the FSC (Canis familiaris [31]) was 75%, the FSC (Canis familiaris [32]) was 100% and the FSC (Canis familiaris [26]) was 100%. It also gave an FSC (Canis familiaris [33]) of 81%, an FSC (Canis familiaris [20]) of 95% and an FSC (Canis familiaris [34]) of 100%. For the same molecule, the LD50 [4] was 88 mg/kg.
With `CNC(=O)Nc1c(OCCNC(C)C)c(OC)c2occc2c1OC` the Duration (Canis familiaris [1]) was less than 30 min, the LD50 [4] was 49 mg/kg and the SRR (Canis familiaris [35]) was 100%.
For `COc1c(NC(=O)C2CCCCC2)c(OCCN2CCCCC2)c(OC)c2occc12`, the SRR (Canis familiaris [36]) was “Estimated as too toxic to be tested” and the LD50 [4] was 7 mg/kg.
In the case of `CNC(=O)Nc1c(OCCN2CCN(C)CC2)c(OC)c2occc2c1OC`, the Duration (Canis familiaris [22]) is reported as 30 min and <30 min, the Duration (Canis familiaris [1]) is reported as 120 min and the ISC (Canis familiaris [37]) is reported as 18%. It also gave an ISC (Canis familiaris [15]) of 1%, an SRR (Canis familiaris [25]) of 100% and an FSC (Canis familiaris [18]) of 50%. For the same molecule, the FSC (Canis familiaris [38]) was 98% and the LD50 [4] was 145 mg/kg.
`CNC(=O)Nc1c(OCCN2CCCCC2)cc2occc2c1OC` gave an SRR (Canis familiaris [39]) of 100% and an LD50 [4] of 100 mg/kg.
With `COc1c(NC(=O)OC(C)C)c(OCCN2CCCCC2)c(OC)c2occc12` the Duration (Canis familiaris [22]) was 10 min, the Duration (Canis familiaris [1]) was greater than 100 min and the ISC (Canis familiaris [40]) was 30%. For the same molecule, the SRR (Canis familiaris [3]) was 100%, the FSC (Canis familiaris [41]) was 50% and the LD50 [4] was 10 mg/kg.
For `COc1c(NC(=O)c2ccccc2)c(OCCN2CCCCC2)c(OC)c2occc12`, the SRR (Canis familiaris [36]) was “Estimated as too toxic to be tested” and the LD50 [4] was 2.5 mg/kg.
In the case of `CNC(=O)Nc1c(OC(C)CN2CCCCC2)c(OC)c2occc2c1OC` (stereo unspecified), the Duration (Canis familiaris [1]) is reported as 15 min, the SRR (Canis familiaris [3]) is reported as 100% and the LD50 [4] is reported as 23 mg/kg.
For `CCN(CC)CCOc1c(NC(=O)NC)c(OC)c2ccoc2c1OC`, the Duration (Canis familiaris [1]) was greater than 120 min, the ISC (Canis familiaris [42]) was “inactive” and the SRR (Canis familiaris [11]) was 100%. For the same molecule, the LD50 [4] was 74 mg/kg.
